Test results from patent publication US20060135574A1, “Novel uses for estrogen beta agonists” (Wyeth, priority 2004, published 2006).

Columns and labels:
male Long Evans rats = test: Novel Object Recognition; type: in vivo; conditions: 0.5 mg/kg injected 30 minutes prior to T1; Trial 2 48 hours after Day 2
Protocol: (§1) Novel Object Recognition is impaired in several disorders of memory including Alzheimer's disease, schizophrenia, mild cognitive impairment (MCI), stroke, amongst others. In rodents, […] is used extensively to examine the effects of drugs on this form of memory. An ERβ agonist, 7-bromo-2-(4-hydroxyphenyl)-1,3-benzoxazol-5-ol, was tested on this form of memory. In the habituation stage (Day 1), the rats, male Long Evans are habituated for 10 minutes each to an arena that contains 2 identical objects (YY). On trial 1 (Day 2), the arena is set up with a different set of identical objects (e.g., BB) and the animals are allowed to spend 5 minutes sniffing each objects. Thirty (30) minutes prior to T1, animals were injected with 7-bromo-2-(4-hydroxyphenyl)-1,3-benzoxazol-5-ol.

[1] = tested on: ovariectomized female rats; test: Working memory, radial arm maze win-shift task; type: in vivo; conditions: OVX rats; estradiol benzoate 0.02 mg/kg s.c. in oil for 2 days; ERβ and ERα agonists 10 mg/kg for 6 days
Source text: Cognitive symptoms of memory, including those from Alzheimer's disease and stroke, can be evaluated by such models as the Fear Conditioning Paradigm (Gould T J et al., 2002 Behav Pharmacol. 13(4):287-94; Hamm A O et al., 2003 Brain 126(Pt 2):267-75) and Radial Arm Test (Aggleton J P et al., 1996 Behav Brain Res. 19(2):133-46), while spatial reference memory and learning can be evaluated in the Morris watermaze (Bontempi B et al., 1996 Eur J Neurosci. 8(11):2348-60). Additionally, memory and hippocampal hypo-functioning can be assessed by measuring the restoration of synaptic plasticity in ovariectomized (OVX) female rats. (Day and Good, 2005 Jan., Neurobiol Learn Mem., 83(1): 13-21). Further, changes in attention function because of schizophrenia can be examined by the five (5) Choice Serial Reaction Time Test (5CSRT) (see Muir J L, et al., 1995 Psychopharmacology (Berl) 118(1): 82-92; Robbins et al., 1998 Ann N Y Acad Sci. 846:222-37).
Female rats were habituated to a water deprivation schedule and to the radial maze for at least one week prior to acquisition. The rats were ovariectomized six to eight (6-8) weeks before testing. Subjects were then treated with either estradiol benzoate (0.02 mg/kg), the ERfl agonist, 7-bromo-2-(4-hydroxyphenyl)-1,3-benzoxazol-5-ol, or an ERα agonist. […]

Male C56/BL6 mice = test: Apomorphine induced climbing (AIC) in pretreated male mice; type: in vivo; conditions: for attenuation / blockade of apomorphine induced climbing (AIC): male mice pretreated for 3 consecutive days, estradiol benzoate 0.1, 0.3 and 1 mg/kg, at 24 and 48 hours
Source text: Patients can be evaluated for cognitive diseases or disorders by any of the tests known in the art. Preclinically, animals can be evaluated for blockade/attenuation of symptoms associated with schizophrenia. Positive symptoms in animal models of schizophrenia can be evaluated by measuring changes in the overall level of activity of dopamine (DA) activity with concomitant parallel changes in locomotor activity (Depoortere R et al., 2003 Neuropsychopharmacology 28(11):1889-902), D-amphetamine (AMPH) and phencyclidine (PCP) via induction of model psychosis or locomotor hyperactivity (Freed W J et al., 1984 Neuropharmacology 23(2A):175-81; Sams-Dodd, F. 1998 Neuropsychopharmacology 19(1): 18-25). For example, Depoortere et al. have described tests for evaluating locomotor activity, catalepsy, climbing and stereotypy, which relate to positive symptomology and side effect profile, by characterizing compounds with typical and atypical antipsychotic efficacy (2003). Attenuation in apomorphine-induced climbing, stereotypy and catalepsy (AIC) can be evaluated as described by Fung Y K et al. 1986 Pharmacol Biochem Behav. 1986 24(1):139-41 and Fung, et aL, 1987 Steroids 49(4-5):287-94. Additionally, negative symptoms of schizophrenia can be evaluated by measuring social interaction under the influence of NMDA antagonists such as PCP (Sams-Dodd F 1998).
Male C56/BL6 mice were pretreated with estradiol benzoate 0.1, 0.3 and 1 mg/kg and an estrogen beta agonist, 7-bromo-2-(4-hydroxyphenyl)-1,3-benzoxazol-5-ol for three (3) consecutive days, and then evaluated for locomotor activity, catalepsy, AIC and stereotypy. Estradiol benzoate attenuated AIC at 24 and 48 hours (approximately 55%), while the estrogen beta agonist, 7-bromo-2-(4-hydroxyphenyl)-1,3-benzoxazol-5-ol, outperformed estradiol benzoate by inducing a sixty percent (60%) blockade of AIC in the male mice.

aged rats (15 months) = test: Mild cognitive impairment model: CREB levels and Novel Object Recognition in aged rats; type: in vivo; conditions: single injection 1 mg/kg 30 minutes prior to testing, compared to young 3 month old rats
Protocol: as §1
cAMP-response-element-binding protein (CREB) is expressed in all cells in the brain and is a member of a family of proteins that function as transcription factors. […] Aged animals show marked decreases in CREB activation and memory; and this decline in cognition in aged rats is a useful model of mild cognitive impairment seen in humans. As such, an ERβ agonist, 7-bromo-2-(4-hydroxyphenyl)-1,3-benzoxazol-5-ol, was tested on this form of recognition memory. […]

[2] = tested on: young men diagnosed with severe schizophrenia; conditions: 33 young men, small doses for two weeks; cited from earlier work
hippocampal CA1 region = test: Synaptic plasticity (LTD/LTP) in the hippocampal CA1 region after ovariectomy; type: in vivo, rats; conditions: chronic replacement, injection every 48 hours over 5 weeks
Source text: In Experiment 1, ovariectomy carried out either five (5) days or five (5) weeks before testing impaired the induction of long-term depression (LTD), but not long-term potentiation (LTP). […] The findings are discussed with reference to (1) the contribution of Ca^2+ regulated synaptic signaling pathways in the CA1 region to estradiol modulation of LTP and LTD and (2) the potential functional significance of ovariectomy-induced changes in synaptic plasticity for learning and memory processes. […] Restoration of impaired synaptic plasticity of ovariectomized female rats following estrogen treatment can be evaluated by the protocol used by Day and Good, January 2005, Neurobiol Learn Mem., 83(1): 13-21.

male mice = conditions: cited from earlier work
βERKO female mice = test: Phencyclidine (PCP) induced locomotor activity (LMA) during PCP withdrawal; type: in vivo; conditions: 0.3 mg/kg on day 5, sub-effective PCP dose after 4 day withdrawal
Protocol: Animals were treated for five (5) days with PCP. Following this period, the animals were given a 4 day withdrawal period. One group received 0.3mg/kg estradiol benzoate on day 5. […] Thus, the classic estrogen agonist, estradiol benzoate, effectively blocks the effects of PCP on LMA, with other ERβ agonists likely to behave similarly.

In the case of Oc1ccc(-c2nc3cc(O)cc(Br)c3o2)cc1 [7-bromo-2-(4-hydroxyphenyl)-1,3-benzoxazol-5-ol], the “time investigating the novel object versus the familiar object in Trial 2” value (male Long Evans rats) is reported as “significantly improved”, the “working memory in the radial arm maze” value [1] is reported as “improved working memory” and the “blockade of AIC compared with estrogen treatment (FIG. 1)” value (Male C56/BL6 mice; 3 days of treatment) is reported as “more profound blockade of AIC”. The “attenuation / blockade of apomorphine induced climbing (AIC)” value (Male C56/BL6 mice) was 60%, the CREB levels (aged rats (15 months)) was “restored the CREB levels” and the “memory in the NOR method” value (aged rats (15 months)) was “increased memory”.

For C[C@]12CC[C@@H]3c4ccc(O)cc4CC[C@H]3[C@@H]1CC[C@@H]2O [17β-estradiol], the hallucinations and delusions [2] is listed as “significant decline in hallucinations and delusions”, the “induction of LTP” value (hippocampal CA1 region) is listed as “no effect on the induction of LTP” and the “magnitude of paired-pulse induced LTD in the CA1 region” value (hippocampal CA1 region) is listed as “enhanced the magnitude of paired-pulse induced LTD”.

For C[C@]12CC[C@@H]3c4ccc(OC(=O)c5ccccc5)cc4CC[C@H]3[C@@H]1CC[C@@H]2O [estradiol benzoate], the “working memory in the radial arm maze” value [1] is given as “improved working memory”, the “effect on apomorphine induced climbing” value (male mice) is given as “attenuate apomorphine induced climbing” and the “attenuation / blockade of apomorphine induced climbing (AIC)” value (Male C56/BL6 mice) is given as “approximately 55%”. For the same compound, the “effect on PCP induced LMA” value (βERKO female mice) was “successfully blocked the effect of PCP induced LMA”.
